Results taken from US7868028B2 (priority 2002, dated 2011).
Where “and” joins values, the source holds several entries; their conditions need not be identical. Identical values can stand only once.

Experiments:
[1] = system: voltage-gated sodium channel (site 1, [3H]Saxitoxin binding); design: species or system rat; on % inhibition: test concentration or dose not given here
[2] = system: Male Sprague-Dawley rats; settings: rat, in vivo; further: test concentration or dose not given here
[3] = biological target: voltage-gated sodium channel; settings: cited from earlier work

Cl.N=c1n(Cc2ccccc2)c2ccccc2n1CC(O)c1cccs1 (racemic) [Compound 6]
% inhibition [1]: 52% | IC50 [1]: 43 µM | Average % MPE 5 minutes [2]: 93 % MPE and 80 % MPE and 100 % MPE

Cl.N=c1n(Cc2ccccc2)c2ccccc2n1CC(O)c1ccc(Cl)c(Cl)c1 (racemic) [Compound 2]
% inhibition [1]: 46% | IC50 [1]: 21 µM | Average % MPE 5 minutes [2]: 100 % MPE | Average % MPE Day 4 [2]: 1 % MPE

CCCCn1c(=N)n(CC(O)COc2ccc(Cl)cc2)c2ccccc21.Cl (racemic) [Compound 10]
% inhibition [1]: 42% | IC50 [1]: 96 µM | Average % MPE 5 minutes [2]: 26 % MPE | Average % MPE Day 4 [2]: 19 % MPE

CCn1c(=N)n(CC(O)c2ccc(Cl)c(Cl)c2)c2ccccc21.Cl (stereo not shown) [Compound 9]
% inhibition [1]: 46% | IC50 [1]: 89 µM | Average % MPE 5 minutes [2]: 100 % MPE | Average % MPE Day 4 [2]: 34 % MPE

Br.N=c1n(Cc2ccccc2)c2ccccc2n1CC(O)COCc1ccccc1 (stereo not shown) [Compound 71]
% inhibition [1]: 34% | IC50 [1]: 30 µM | Average % MPE 5 minutes [2]: 100 % MPE | Average % MPE Day 4 [2]: 2 % MPE

Cl.N=c1n(Cc2ccccc2)c2ccccc2n1CC(O)c1ccc(Cl)cc1 (stereo not shown) [Compound 7]
% inhibition [1]: 51% | IC50 [1]: 60 µM | Average % MPE 5 minutes [2]: 100 % MPE | Average % MPE Day 4 [2]: 32 % MPE

Cl.N=c1n(Cc2ccccc2)c2ccccc2n1CC(O)COc1ccc(Cl)cc1 (stereo not shown) [Compound 1]
% inhibition [1]: 59% | IC50 [1]: 15 µM | Average % MPE 5 minutes [2]: 100 % MPE | Average % MPE Day 4 [2]: 3 % MPE

Cc1ccc(Cn2c(=N)n(CC(O)COc3ccccc3)c3ccccc32)cc1.Cl (racemic) [Compound 4]
% inhibition [1]: 47% | IC50 [1]: 21 µM | Average % MPE 5 minutes [2]: 100 % MPE | Average % MPE Day 4 [2]: −2 % MPE

Cc1ccc(Cn2c(=N)n(CC(O)c3ccc(Cl)c(Cl)c3)c3ccccc32)cc1.Cl (stereo not shown) [Compound 11]
% inhibition [1]: 48% | IC50 [1]: 155 µM | Average % MPE 5 minutes [2]: 34 % MPE | Average % MPE Day 4 [2]: 18 % MPE

Br.N=c1n(Cc2ccc(F)cc2)c2ccccc2n1CC(O)COc1ccccc1 (racemic) [Compound 70]
% inhibition [1]: 26% | IC50 [1]: 97 µM | Average % MPE 5 minutes [2]: 83 % MPE | Average % MPE Day 4 [2]: 4 % MPE

NC1=N[C@H](O)[C@H]2[C@H]3O[C@]4(O)O[C@@H]([C@@H](O)[C@@]2(N1)[C@@H]4O)[C@]3(O)CO [TTX, tetrodotoxin]
Kd [3]: 3 to 5 nM

CCCCn1c(=N)n(CC(O)COc2ccccc2)c2ccccc21.Cl (racemic) [Compound 8]
% inhibition [1]: 41% | IC50 [1]: 87 µM | Average % MPE 5 minutes [2]: 100 % MPE
